Measured values taken from US7429660B2, “ATM inhibitors” (Kudos Pharmaceuticals Limited, priority 2003, dated 2008).

Target: T1, ATM protein immunoprecipitated from HeLa cell nuclear extract (Homo sapiens, UniProt Q13315)
T1 construct: ATM protein was immunoprecipitated from HeLa cell nuclear extract; endogenous in cells; host or cells: HeLa cell nuclear extract (immunoprecipitated with rabbit polyclonal anti-ATM antiserum)
Assay: In vitro ATM inhibition assay (phosphorylation of GSTp53N66 on serine 15, chemiluminescent detection); note: tested normally from 100 µM down to 0.1 nM
Type: biochemical
Conditions: read-out: IC50 values (the concentration at which 50% of the enzyme activity is inhibited), ATM inhibition
Procedure, shortened: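 Immunoprecipitated HeLa nuclear ATM (C-terminal anti-sera) with GSTp53N66 substrate in Hepes pH 7.4 buffer with MgCl2/MnCl2; inhibitor preincubated 10 min at 37 °C, then Na-ATP added, 1 h at 37 °C.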

T1 sequence (Q13315 whole entry): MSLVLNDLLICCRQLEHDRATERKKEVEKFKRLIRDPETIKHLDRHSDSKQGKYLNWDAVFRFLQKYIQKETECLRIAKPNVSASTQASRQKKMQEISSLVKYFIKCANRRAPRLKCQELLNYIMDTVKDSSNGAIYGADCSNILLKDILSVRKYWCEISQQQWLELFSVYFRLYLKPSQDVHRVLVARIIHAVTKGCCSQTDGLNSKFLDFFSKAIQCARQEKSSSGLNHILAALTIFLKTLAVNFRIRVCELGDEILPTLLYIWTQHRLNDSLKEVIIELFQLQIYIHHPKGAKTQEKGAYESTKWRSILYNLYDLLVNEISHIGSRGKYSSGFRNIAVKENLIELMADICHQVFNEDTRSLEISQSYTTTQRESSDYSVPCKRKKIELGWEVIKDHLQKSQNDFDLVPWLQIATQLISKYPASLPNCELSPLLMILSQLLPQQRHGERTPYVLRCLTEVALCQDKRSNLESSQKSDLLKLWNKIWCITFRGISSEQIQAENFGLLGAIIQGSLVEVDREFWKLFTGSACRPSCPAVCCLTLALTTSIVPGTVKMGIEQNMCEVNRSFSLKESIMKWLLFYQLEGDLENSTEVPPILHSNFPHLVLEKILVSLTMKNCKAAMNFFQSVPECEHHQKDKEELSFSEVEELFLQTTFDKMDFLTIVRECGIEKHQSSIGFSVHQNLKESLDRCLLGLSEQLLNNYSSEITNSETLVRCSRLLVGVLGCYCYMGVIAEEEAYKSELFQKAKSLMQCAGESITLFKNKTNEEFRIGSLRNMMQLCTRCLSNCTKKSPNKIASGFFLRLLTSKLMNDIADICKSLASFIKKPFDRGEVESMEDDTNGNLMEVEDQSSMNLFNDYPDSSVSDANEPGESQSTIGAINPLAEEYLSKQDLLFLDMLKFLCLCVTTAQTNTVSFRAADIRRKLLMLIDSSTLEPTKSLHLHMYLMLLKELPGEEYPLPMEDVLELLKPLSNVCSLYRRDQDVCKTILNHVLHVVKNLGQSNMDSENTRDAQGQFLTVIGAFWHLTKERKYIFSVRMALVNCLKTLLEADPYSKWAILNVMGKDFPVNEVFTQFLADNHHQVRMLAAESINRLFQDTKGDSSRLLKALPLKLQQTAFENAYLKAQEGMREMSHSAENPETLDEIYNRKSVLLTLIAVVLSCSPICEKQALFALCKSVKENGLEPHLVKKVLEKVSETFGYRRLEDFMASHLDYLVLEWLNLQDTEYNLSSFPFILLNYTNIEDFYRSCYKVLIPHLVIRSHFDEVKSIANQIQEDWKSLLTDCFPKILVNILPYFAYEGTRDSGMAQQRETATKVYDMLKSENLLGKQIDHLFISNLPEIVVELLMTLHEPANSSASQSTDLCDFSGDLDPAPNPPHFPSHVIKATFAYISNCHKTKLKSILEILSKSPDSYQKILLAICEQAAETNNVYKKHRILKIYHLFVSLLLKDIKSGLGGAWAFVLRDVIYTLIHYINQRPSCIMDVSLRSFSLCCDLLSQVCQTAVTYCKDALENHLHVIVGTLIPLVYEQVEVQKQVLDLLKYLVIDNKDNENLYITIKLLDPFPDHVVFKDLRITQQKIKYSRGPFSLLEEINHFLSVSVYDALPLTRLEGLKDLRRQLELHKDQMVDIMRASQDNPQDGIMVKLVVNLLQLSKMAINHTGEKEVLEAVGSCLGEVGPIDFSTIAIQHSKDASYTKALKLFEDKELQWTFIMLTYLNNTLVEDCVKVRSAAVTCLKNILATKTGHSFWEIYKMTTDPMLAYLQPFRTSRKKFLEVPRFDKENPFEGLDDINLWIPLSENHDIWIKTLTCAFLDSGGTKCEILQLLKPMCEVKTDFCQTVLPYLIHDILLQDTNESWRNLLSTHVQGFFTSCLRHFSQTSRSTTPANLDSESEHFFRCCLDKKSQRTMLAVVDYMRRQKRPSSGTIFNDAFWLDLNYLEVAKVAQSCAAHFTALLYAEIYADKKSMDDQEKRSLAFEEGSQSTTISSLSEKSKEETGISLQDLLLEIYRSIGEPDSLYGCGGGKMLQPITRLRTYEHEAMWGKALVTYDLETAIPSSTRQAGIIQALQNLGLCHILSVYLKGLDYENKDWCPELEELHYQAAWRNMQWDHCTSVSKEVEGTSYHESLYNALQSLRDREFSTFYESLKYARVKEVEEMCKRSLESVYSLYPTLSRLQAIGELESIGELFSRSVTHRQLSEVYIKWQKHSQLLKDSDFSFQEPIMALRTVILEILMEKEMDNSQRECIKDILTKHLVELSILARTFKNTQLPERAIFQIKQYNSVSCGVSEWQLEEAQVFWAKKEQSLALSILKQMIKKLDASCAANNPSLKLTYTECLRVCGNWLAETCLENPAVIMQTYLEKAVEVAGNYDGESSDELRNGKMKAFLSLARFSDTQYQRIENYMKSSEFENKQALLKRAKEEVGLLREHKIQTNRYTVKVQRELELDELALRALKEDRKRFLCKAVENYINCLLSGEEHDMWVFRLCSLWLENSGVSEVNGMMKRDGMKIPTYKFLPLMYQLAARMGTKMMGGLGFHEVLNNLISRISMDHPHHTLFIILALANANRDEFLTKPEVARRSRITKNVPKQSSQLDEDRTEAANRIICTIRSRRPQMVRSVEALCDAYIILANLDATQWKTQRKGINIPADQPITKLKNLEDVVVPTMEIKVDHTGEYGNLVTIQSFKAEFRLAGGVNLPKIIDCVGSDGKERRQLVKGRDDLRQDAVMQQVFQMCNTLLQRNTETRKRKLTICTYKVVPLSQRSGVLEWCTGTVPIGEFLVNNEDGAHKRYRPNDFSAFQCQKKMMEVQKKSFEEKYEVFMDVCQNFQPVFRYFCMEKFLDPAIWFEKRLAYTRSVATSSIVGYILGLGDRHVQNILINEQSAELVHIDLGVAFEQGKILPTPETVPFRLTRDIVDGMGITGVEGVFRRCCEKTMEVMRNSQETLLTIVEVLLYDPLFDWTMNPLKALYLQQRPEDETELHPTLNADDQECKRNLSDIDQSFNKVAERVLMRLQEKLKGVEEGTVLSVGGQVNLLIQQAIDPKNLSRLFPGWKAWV

SMILES	IC50 [nM]
CSCCNC(=O)COc1ccc2c(c1)Cc1cccc(-c3cc(=O)cc(N4CCOCC4)o3)c1S2 [Compound 500]	< 200
O=C(COc1ccc2c(c1)Sc1cccc(-c3cc(=O)cc(N4CCOCC4)o3)c1S2)N1CCCCC1 [Compound 440]	< 200
CN1CCN(CC(=O)Nc2ccc3c(c2)Sc2cccc(-c4cc(=O)cc(N5CCOCC5)o4)c2S3)CC1 [Compound 54]	< 200
CN(C)CCN1CCN(CC(=O)Nc2ccc3c(c2)Sc2cccc(-c4cc(=O)cc(N5CCOCC5)o4)c2S3)CC1 [Compound 86]	< 200
CN1CCCN(CCC(=O)Nc2ccc3c(c2)Sc2cccc(-c4cc(=O)cc(N5CCOCC5)o4)c2S3)CC1 [Compound 99]	< 200
O=c1cc(-c2cccc3c2Sc2ccc(OCCN4CCOCC4)cc2S3)oc(N2CCOCC2)c1 [Compound 403]	< 200
C[C@@H]1CN(CCOc2ccc3c(c2)Sc2cccc(-c4cc(=O)cc(N5CCOCC5)o4)c2S3)C[C@H](C)O1 [Compound 359]	< 200
CCN(CC)CCC(=O)Nc1ccc2c(c1)Sc1cccc(-c3cc(=O)cc(N4CCOCC4)o3)c1S2 [Compound 105]	< 200
O=C(Cc1cccs1)Nc1ccc2c(c1)Sc1cccc(-c3cc(=O)cc(N4CCOCC4)o3)c1S2 [Compound 33]	< 200
O=C(c1ccc2c(c1)Sc1cccc(-c3cc(=O)cc(N4CCOCC4)o3)c1S2)N1CCNCC1 [Compound 19]	< 200
O=C(CCNCCN1CCNC1=O)Nc1ccc2c(c1)Sc1cccc(-c3cc(=O)cc(N4CCOCC4)o3)c1S2 [Compound 113]	< 200
O=C(CN1CCCCC1)Nc1ccc2c(c1)Sc1cccc(-c3cc(=O)cc(N4CCOCC4)o3)c1S2 [Compound 52]	< 200
O=C(CN1CCN(c2ccc(F)cc2)CC1)Nc1ccc2c(c1)Sc1cccc(-c3cc(=O)cc(N4CCOCC4)o3)c1S2 [Compound 83]	< 200
O=c1cc(-c2cccc3c2Sc2ccccc2N3CCCN(CCO)CCO)oc(N2CCOCC2)c1 [Compound 327]	< 200
COC(=O)CCCC(=O)Nc1ccc2c(c1)Sc1cccc(-c3cc(=O)cc(N4CCOCC4)o3)c1S2 [Compound 26]	< 200
O=c1cc(-c2cccc3c2Sc2ccc(S(=O)(=O)Nc4cccnc4)cc2C3)oc(N2CCOCC2)c1 [Compound 472]	< 200
O=c1cc(-c2ccc(OCCCNC3CCC3)c3c2Sc2ccccc2S3)oc(N2CCOCC2)c1 [Compound 182]	< 200
O=C(Nc1ccc2c(c1)Sc1cccc(-c3cc(=O)cc(N4CCOCC4)o3)c1S2)C1CCC1 [Compound 34]	< 200
O=C(CN1CCN(c2ccccn2)CC1)Nc1ccc2c(c1)Cc1cccc(-c3cc(=O)cc(N4CCOCC4)o3)c1S2 [Compound 343]	< 200
O=C(c1ccc2c(c1)Sc1cccc(-c3cc(=O)cc(N4CCOCC4)o3)c1S2)N1CCN(c2ncccn2)CC1 [Compound 13]	< 200
O=c1cc(-c2cccc3c2Sc2ccc(S(=O)(=O)NCC(F)(F)F)cc2C3)oc(N2CCOCC2)c1 [Compound 454]	< 200
O=c1cc(-c2ccc(OCCN3CCCCCC3)c3c2Sc2ccccc2S3)oc(N2CCOCC2)c1 [Compound 148]	< 200
O=C(CCNCCCN1CCOCC1)Nc1ccc2c(c1)Sc1cccc(-c3cc(=O)cc(N4CCOCC4)o3)c1S2 [Compound 102]	< 200
O=C(COc1ccc2c(c1)Cc1cccc(-c3cc(=O)cc(N4CCOCC4)o3)c1S2)NC[C@@H]1CCCCC[C@@H]1O [Compound 513]	< 200
CN(C)CCN(CCCN1c2ccccc2Sc2c(-c3cc(=O)cc(N4CCOCC4)o3)cccc21)Cc1ccccc1 [Compound 281]	< 200
CN(C)CC(=O)Nc1ccc2c(c1)Sc1cccc(-c3cc(=O)cc(N4CCOCC4)o3)c1S2 [Compound 69]	< 200

SMILES	IC50 [nM]
O=C(CN1CCOCC1)Nc1ccc2c(c1)Sc1cccc(-c3cc(=O)cc(N4CCOCC4)o3)c1S2 [Compound 51]	< 200
O=C(Nc1ccc2c(c1)Sc1cccc(-c3cc(=O)cc(N4CCOCC4)o3)c1S2)c1ccc2nsnc2c1 [Compound 45]	< 200
COCCN1CCN(C(=O)COc2ccc3c(c2)Sc2cccc(-c4cc(=O)cc(N5CCOCC5)o4)c2S3)CC1 [Compound 435]	< 200
CC(=O)N1CCN(CC(=O)Nc2ccc3c(c2)Cc2cccc(-c4cc(=O)cc(N5CCOCC5)o4)c2S3)CC1 [Compound 338]	< 200
CN1CCN(S(=O)(=O)c2ccc3c(c2)Cc2cccc(-c4cc(=O)cc(N5CCOCC5)o4)c2S3)CC1 [Compound 480]	< 200
CN1CCN(CCCN2c3ccccc3Sc3c(-c4cc(=O)cc(N5CCOCC5)o4)cccc32)CC1 [Compound 288]	< 200
CC(=O)Nc1ccc2c(c1)Sc1cccc(-c3cc(=O)cc(N4CCOCC4)o3)c1S2 [Compound 22]	< 200
O=c1cc(-c2cccc3c2Sc2ccc(S(=O)(=O)NCCO)cc2C3)oc(N2CCOCC2)c1 [Compound 484]	< 200
COCCN(CCOC)CC(=O)Nc1ccc2c(c1)Sc1cccc(-c3cc(=O)cc(N4CCOCC4)o3)c1S2 [Compound 56]	< 200
O=c1cc(-c2cccc3c2Sc2ccccc2N3CCCN2CCN(c3ccccc3F)CC2)oc(N2CCOCC2)c1 [Compound 297]	< 200
O=c1cc(-c2cccc3c2Sc2ccccc2N3CCCNCC2CCCO2)oc(N2CCOCC2)c1 (stereo not drawn) [Compound 240]	< 200
O=C(COc1ccc2c(c1)Cc1cccc(-c3cc(=O)cc(N4CCOCC4)o3)c1S2)NC(CO)(CO)CO [Compound 505]	< 200
O=c1cc(-c2cccc3c2Sc2ccccc2N3CCCN2CCN(CCO)CC2)oc(N2CCOCC2)c1 [Compound 300]	< 200
CN(C)CCN(C)C(=O)COc1ccc2c(c1)Sc1cccc(-c3cc(=O)cc(N4CCOCC4)o3)c1S2 [Compound 434]	< 200
Cc1ccc(N2CCN(CCCN3c4ccccc4Sc4c(-c5cc(=O)cc(N6CCOCC6)o5)cccc43)CC2)c(C)c1 [Compound 294]	< 200
O=C(CN1CCNCC1)Nc1ccc2c(c1)Sc1cccc(-c3cc(=O)cc(N4CCOCC4)o3)c1S2 [Compound 53]	< 200
O=C(COc1ccc2c(c1)Sc1cccc(-c3cc(=O)cc(N4CCOCC4)o3)c1S2)N(CCO)CCO [Compound 444]	< 200
O=C(COc1ccc2c(c1)Sc1cccc(-c3cc(=O)cc(N4CCOCC4)o3)c1S2)N1CCSCC1 [Compound 417]	< 200
CN(C)CCN(C)CC(=O)Nc1ccc2c(c1)Sc1cccc(-c3cc(=O)cc(N4CCOCC4)o3)c1S2 [Compound 73]	< 200
CN(C)CCN1CCN(CCCN2c3ccccc3Sc3c(-c4cc(=O)cc(N5CCOCC5)o4)cccc32)CC1 [Compound 304]	< 200
CCN1CCN(C(=O)COc2ccc3c(c2)Cc2cccc(-c4cc(=O)cc(N5CCOCC5)o4)c2S3)CC1 [Compound 524]	< 200
O=C(c1ccc2c(c1)Sc1cccc(-c3cc(=O)cc(N4CCOCC4)o3)c1S2)N1CCN(c2ccccn2)CC1 [Compound 8]	< 200
O=c1cc(-c2cccc3c2Sc2ccc(S(=O)(=O)NC(CO)CO)cc2C3)oc(N2CCOCC2)c1 [Compound 466]	< 200
O=C(Nc1ccc2c(c1)Sc1cccc(-c3cc(=O)cc(N4CCOCC4)o3)c1S2)c1csc(-c2cccs2)n1 [Compound 46]	< 200
O=c1cc(-c2cccc3c2Sc2ccccc2N3CCCNc2nc(-c3ccccc3)ns2)oc(N2CCOCC2)c1 [Compound 330]	< 200
